Measurements taken from ChEMBL document CHEMBL4507324 (2021).

Legend:
[1] = target: Tyrosine-protein kinase Blk (Homo sapiens) (UniProt P51451); conditions: Compound concentration 100.0 nM
[2] = target: Insulin-like growth factor 1 receptor (Homo sapiens) (UniProt P08069); conditions: Compound concentration 100.0 nM
[3] = target: Tyrosine-protein kinase ABL1 (Homo sapiens) (UniProt P00519); conditions: Compound concentration 100.0 nM
[4] = target: Mitogen-activated protein kinase 6 (Homo sapiens) (UniProt Q16659); conditions: Compound concentration 100.0 nM
[5] = system: Tyrosine-protein kinase ABL1 (Homo sapiens), P00519 [Y253F]; conditions: Compound concentration 100.0 nM
[6] = system: Phosphatidylinositol 4,5-bisphosphate 3-kinase catalytic subunit alpha isoform (Homo sapiens), P42336 [C420R]; conditions: Compound concentration 100.0 nM
[7] = system: Receptor-type tyrosine-protein kinase FLT3 (Homo sapiens), P36888 [UNDEFINED MUTATION]; conditions: Compound concentration 100.0 nM
[8] = target: MAP kinase-interacting serine/threonine-protein kinase 2 (Homo sapiens) (UniProt Q9HBH9); conditions: Compound concentration 100.0 nM
[9] = target: Casein kinase II subunit alpha (Homo sapiens) (UniProt P68400); conditions: Compound concentration 100.0 nM
[10] = target: Mitogen-activated protein kinase kinase kinase 19 (Homo sapiens) (UniProt Q56UN5); conditions: Compound concentration 100.0 nM
[11] = target: Myosin light chain kinase, smooth muscle (Homo sapiens) (UniProt Q15746); conditions: Compound concentration 100.0 nM
[12] = target: Non-receptor tyrosine-protein kinase TYK2 (Homo sapiens) (UniProt P29597); conditions: Compound concentration 100.0 nM
[13] = system: Phosphatidylinositol 4,5-bisphosphate 3-kinase catalytic subunit alpha isoform (Homo sapiens), P42336 [E545K]; conditions: Compound concentration 100.0 nM
[14] = target: Alpha-2A adrenergic receptor (Homo sapiens) (UniProt P08913); conditions: Compound concentration 10.0 uM
[15] = target: 5-hydroxytryptamine receptor 3A (Homo sapiens) (UniProt P46098); conditions: Compound concentration 10.0 uM
[16] = target: Alpha-1D adrenergic receptor (Homo sapiens) (UniProt P25100); conditions: Compound concentration 10.0 uM
[17] = target: Sodium-dependent serotonin transporter (Homo sapiens) (UniProt P31645); conditions: Compound concentration 10.0 uM
[18] = target: T1, GABA-A receptor; anion channel (Rattus norvegicus) (UniProt O09028+P15431+P18506+P18508+P19969+P20236+P23574+P23576+P28471+P28473+P30191+P62813+P63079+P63138+Q91ZM7+Q9ES14); conditions: Compound concentration 10.0 uM
[19] = target: Delta-type opioid receptor (Homo sapiens) (UniProt P41143); conditions: Compound concentration 10.0 uM
[20] = target: Muscarinic acetylcholine receptor M3 (Homo sapiens) (UniProt P20309); conditions: Compound concentration 10.0 uM
[21] = target: Beta-1 adrenergic receptor (Homo sapiens) (UniProt P08588); conditions: Compound concentration 10.0 uM
[22] = target: 5-hydroxytryptamine receptor 2C (Homo sapiens) (UniProt P28335); conditions: Compound concentration 10.0 uM
[23] = target: Mu-type opioid receptor (Homo sapiens) (UniProt P35372); conditions: Compound concentration 10.0 uM
[24] = target: Kappa-type opioid receptor (Homo sapiens) (UniProt P41145); conditions: Compound concentration 10.0 uM
[25] = target: Muscarinic acetylcholine receptor M2 (Homo sapiens) (UniProt P08172); conditions: Compound concentration 10.0 uM
[26] = target: Muscarinic acetylcholine receptor M1 (Homo sapiens) (UniProt P11229); conditions: Compound concentration 10.0 uM
[27] = target: Histamine H4 receptor (Homo sapiens) (UniProt Q9H3N8); conditions: Compound concentration 10.0 uM
[28] = target: Sigma non-opioid intracellular receptor 1 (Homo sapiens) (UniProt Q99720); conditions: Compound concentration 10.0 uM
[29] = target: Alpha-1A adrenergic receptor (Homo sapiens) (UniProt P35348); conditions: Compound concentration 10.0 uM
[30] = target: Alpha-2B adrenergic receptor (Homo sapiens) (UniProt P18089); conditions: Compound concentration 10.0 uM
[31] = target: Alpha-2C adrenergic receptor (Homo sapiens) (UniProt P18825); conditions: Compound concentration 10.0 uM
[32] = target: 5-hydroxytryptamine receptor 1B (Homo sapiens) (UniProt P28222); conditions: Compound concentration 10.0 uM
[33] = target: Histamine H1 receptor (Homo sapiens) (UniProt P35367); conditions: Compound concentration 10.0 uM
Rattus norvegicus = organism: Rattus norvegicus; conditions: Compound concentration 10.0 uM
[34] = target: 5-hydroxytryptamine receptor 6 (Homo sapiens) (UniProt P50406); conditions: Compound concentration 10.0 uM
[35] = target: Serine/threonine-protein kinase B-raf (Homo sapiens, UniProt P15056); assay: NanoBRET (SGC-Frankfurt) (BRAF)
[36] = target: T1, GABA-A receptor; anion channel (Rattus norvegicus); conditions: Compound concentration 10.0 uM; remark: listed apart in the source
[37] = target: 5-hydroxytryptamine receptor 7 (Homo sapiens) (UniProt P34969); conditions: Compound concentration 10.0 uM
[38] = target: Beta-2 adrenergic receptor (Homo sapiens) (UniProt P07550); conditions: Compound concentration 10.0 uM
[39] = target: Sodium-dependent dopamine transporter (Homo sapiens) (UniProt Q01959); conditions: Compound concentration 10.0 uM
[40] = target: 5-hydroxytryptamine receptor 1D (Homo sapiens) (UniProt P28221); conditions: Compound concentration 10.0 uM
[41] = target: Serine/threonine-protein kinase 38-like (Homo sapiens, UniProt Q9Y2H1); assay: NanoBRET (SGC-Frankfurt) (STK38L)
[42] = target: Muscarinic acetylcholine receptor M4 (Homo sapiens) (UniProt P08173); conditions: Compound concentration 10.0 uM

Chain of Mitogen-activated protein kinase 6 (Homo sapiens) (Q16659 whole entry): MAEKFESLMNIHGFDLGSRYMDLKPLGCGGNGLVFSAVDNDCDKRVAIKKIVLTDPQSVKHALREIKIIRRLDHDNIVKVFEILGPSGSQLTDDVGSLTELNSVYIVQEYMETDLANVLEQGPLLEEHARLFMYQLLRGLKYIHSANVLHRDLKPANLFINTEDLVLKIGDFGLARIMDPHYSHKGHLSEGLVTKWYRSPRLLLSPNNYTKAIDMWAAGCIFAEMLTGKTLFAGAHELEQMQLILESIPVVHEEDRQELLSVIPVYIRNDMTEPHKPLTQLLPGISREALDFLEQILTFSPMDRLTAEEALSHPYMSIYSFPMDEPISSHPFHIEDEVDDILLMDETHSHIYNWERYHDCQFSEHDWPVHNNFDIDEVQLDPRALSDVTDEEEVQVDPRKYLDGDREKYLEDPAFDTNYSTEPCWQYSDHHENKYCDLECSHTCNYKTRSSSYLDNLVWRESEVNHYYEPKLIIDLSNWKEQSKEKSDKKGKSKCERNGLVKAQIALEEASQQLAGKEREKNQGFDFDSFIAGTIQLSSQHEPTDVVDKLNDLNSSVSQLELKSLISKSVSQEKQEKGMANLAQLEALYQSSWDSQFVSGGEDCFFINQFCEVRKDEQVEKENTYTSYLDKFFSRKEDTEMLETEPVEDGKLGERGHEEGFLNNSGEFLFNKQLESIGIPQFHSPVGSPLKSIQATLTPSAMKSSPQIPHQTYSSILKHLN
Chain of MAP kinase-interacting serine/threonine-protein kinase 2 (Homo sapiens) (Q9HBH9 whole entry, looked up): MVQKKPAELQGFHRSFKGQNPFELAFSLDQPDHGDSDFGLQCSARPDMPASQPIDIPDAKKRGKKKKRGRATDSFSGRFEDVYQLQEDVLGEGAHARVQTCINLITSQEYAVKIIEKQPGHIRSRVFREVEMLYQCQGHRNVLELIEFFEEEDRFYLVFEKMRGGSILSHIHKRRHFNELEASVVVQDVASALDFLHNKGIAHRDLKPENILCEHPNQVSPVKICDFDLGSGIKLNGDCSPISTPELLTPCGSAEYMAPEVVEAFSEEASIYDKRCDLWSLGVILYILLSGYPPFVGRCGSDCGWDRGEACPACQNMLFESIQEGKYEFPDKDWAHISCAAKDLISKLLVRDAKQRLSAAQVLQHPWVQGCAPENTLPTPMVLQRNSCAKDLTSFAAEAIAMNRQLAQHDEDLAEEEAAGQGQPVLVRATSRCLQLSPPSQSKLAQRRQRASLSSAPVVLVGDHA
Chain of Casein kinase II subunit alpha (Homo sapiens) (P68400 whole entry, looked up): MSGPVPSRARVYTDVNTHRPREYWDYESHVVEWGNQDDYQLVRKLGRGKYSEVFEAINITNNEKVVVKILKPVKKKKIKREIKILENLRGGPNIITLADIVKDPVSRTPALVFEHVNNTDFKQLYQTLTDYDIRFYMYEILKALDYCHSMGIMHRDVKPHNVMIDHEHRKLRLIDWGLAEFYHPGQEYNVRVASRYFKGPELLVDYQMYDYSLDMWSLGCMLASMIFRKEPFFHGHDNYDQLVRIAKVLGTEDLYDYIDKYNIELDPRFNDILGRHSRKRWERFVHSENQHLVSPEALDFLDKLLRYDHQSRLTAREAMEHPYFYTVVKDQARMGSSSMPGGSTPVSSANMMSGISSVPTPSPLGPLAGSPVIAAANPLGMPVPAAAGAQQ
Chain of Insulin-like growth factor 1 receptor (Homo sapiens) (P08069 31-736 limits assumed): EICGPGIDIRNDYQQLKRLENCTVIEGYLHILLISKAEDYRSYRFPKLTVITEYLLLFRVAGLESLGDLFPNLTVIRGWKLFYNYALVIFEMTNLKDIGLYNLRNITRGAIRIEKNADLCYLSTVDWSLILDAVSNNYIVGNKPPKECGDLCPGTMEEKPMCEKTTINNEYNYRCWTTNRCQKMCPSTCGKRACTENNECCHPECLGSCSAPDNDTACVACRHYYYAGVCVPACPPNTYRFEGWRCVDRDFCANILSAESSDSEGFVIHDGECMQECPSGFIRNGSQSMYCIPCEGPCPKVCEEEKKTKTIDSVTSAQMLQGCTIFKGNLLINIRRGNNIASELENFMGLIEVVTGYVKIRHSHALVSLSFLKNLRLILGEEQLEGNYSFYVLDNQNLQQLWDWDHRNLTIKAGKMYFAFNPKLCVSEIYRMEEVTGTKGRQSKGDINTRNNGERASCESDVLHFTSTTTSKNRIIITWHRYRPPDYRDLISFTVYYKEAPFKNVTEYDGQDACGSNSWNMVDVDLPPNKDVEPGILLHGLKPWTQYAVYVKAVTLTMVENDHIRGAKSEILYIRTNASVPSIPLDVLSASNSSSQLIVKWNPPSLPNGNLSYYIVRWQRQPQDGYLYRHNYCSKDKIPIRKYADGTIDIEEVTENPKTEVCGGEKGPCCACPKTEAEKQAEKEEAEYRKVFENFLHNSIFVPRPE
Chain of Insulin-like growth factor 1 receptor (Homo sapiens) (P08069 741-1367 limits assumed): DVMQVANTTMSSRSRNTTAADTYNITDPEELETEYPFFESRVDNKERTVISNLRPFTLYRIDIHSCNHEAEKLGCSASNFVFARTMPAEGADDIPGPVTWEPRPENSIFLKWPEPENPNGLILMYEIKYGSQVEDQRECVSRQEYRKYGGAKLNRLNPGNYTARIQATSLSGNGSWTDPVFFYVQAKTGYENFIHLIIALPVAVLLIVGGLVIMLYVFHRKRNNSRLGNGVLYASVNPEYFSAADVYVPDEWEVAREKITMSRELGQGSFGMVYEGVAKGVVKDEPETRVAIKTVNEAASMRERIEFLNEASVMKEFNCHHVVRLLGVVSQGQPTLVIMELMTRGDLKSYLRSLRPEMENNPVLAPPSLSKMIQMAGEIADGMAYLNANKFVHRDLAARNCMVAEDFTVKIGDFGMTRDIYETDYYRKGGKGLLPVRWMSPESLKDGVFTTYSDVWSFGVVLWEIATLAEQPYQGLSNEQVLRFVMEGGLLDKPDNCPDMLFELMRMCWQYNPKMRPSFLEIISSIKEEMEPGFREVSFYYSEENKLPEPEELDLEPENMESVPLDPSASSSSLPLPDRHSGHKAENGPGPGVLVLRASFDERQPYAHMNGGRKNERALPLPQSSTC
Chain of Phosphatidylinositol 4,5-bisphosphate 3-kinase catalytic subunit alpha isoform (Homo sapiens), P42336 [C420R] (P42336 whole entry C420R, canonical isoform): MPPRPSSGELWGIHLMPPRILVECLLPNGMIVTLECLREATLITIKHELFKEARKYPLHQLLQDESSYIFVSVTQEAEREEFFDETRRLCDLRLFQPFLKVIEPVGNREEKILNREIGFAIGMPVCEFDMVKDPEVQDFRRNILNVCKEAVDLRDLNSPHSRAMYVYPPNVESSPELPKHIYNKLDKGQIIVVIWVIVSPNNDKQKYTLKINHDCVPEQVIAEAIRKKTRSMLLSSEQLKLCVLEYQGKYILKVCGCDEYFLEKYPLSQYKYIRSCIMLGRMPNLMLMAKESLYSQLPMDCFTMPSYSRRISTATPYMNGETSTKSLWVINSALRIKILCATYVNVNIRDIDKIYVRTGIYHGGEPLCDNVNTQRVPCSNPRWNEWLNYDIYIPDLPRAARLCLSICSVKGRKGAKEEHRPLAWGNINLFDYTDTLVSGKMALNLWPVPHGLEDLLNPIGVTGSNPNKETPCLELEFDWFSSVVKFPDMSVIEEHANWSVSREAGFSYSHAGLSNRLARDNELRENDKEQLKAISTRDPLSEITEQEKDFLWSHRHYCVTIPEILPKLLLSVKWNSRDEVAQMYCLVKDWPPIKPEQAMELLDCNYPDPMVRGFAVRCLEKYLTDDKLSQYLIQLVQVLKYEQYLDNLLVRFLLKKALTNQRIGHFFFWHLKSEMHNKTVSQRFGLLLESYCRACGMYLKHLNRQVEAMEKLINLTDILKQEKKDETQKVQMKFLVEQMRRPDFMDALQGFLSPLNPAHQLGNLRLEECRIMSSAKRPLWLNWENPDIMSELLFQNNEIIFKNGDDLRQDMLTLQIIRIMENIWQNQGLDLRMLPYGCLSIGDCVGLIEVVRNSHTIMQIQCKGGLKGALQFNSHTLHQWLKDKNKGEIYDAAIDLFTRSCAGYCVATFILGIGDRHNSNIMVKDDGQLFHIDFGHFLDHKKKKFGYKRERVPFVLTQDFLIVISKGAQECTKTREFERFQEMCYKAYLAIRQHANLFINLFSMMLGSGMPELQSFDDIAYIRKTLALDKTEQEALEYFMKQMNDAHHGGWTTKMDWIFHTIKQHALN
Chain of Tyrosine-protein kinase Blk (Homo sapiens) (P51451 2-505 limits assumed): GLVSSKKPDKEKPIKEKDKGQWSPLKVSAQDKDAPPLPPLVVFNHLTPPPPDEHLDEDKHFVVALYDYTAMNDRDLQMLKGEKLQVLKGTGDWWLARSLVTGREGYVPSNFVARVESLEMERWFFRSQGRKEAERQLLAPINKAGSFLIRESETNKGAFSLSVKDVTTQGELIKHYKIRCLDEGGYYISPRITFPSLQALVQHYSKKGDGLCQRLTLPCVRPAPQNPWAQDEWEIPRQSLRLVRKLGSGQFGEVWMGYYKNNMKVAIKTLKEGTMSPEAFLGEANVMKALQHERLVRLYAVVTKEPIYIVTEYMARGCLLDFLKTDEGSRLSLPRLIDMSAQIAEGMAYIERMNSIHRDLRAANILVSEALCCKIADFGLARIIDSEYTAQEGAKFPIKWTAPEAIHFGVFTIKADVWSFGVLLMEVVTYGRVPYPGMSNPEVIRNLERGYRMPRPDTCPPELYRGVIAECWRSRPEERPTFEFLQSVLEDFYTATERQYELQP
Chain of Delta-type opioid receptor (Homo sapiens) (P41143 whole entry): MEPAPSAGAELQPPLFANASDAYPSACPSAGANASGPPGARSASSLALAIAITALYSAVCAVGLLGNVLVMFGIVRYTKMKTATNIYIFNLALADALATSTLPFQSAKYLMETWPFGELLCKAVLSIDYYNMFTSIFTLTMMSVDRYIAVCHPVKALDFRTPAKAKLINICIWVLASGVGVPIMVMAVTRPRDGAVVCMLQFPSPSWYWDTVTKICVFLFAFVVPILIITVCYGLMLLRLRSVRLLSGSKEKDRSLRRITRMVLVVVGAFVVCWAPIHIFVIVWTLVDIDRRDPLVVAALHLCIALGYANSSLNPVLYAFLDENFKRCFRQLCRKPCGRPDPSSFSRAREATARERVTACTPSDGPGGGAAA

SMILES: CS(=O)(=O)N1CCCC(NC(=O)[C@H](CCC2CCCCC2)NC(=O)c2ccc(CNc3ncnc4c3nnn4-c3ccccc3)cc2)C1 (stereo not given in full) [SR-301]
- residual activity [1]: 100%
- residual activity [2]: 100%
- residual activity [3]: 88%
- residual activity [4]: 94%
- residual activity [5]: 84%
- residual activity [6]: 89%
- residual activity [7]: 80%
- residual activity [8]: 100%
- residual activity [9]: 94%
- residual activity [10]: 92%
- residual activity [11]: 100%
- residual activity [12]: 100%
- residual activity [13]: 53%

SMILES: CS(=O)(=O)N1CCCC(NC(=O)[C@H](CCC2CCCCC2)NC(=O)c2ccc(CNC(=O)c3cnc4ccccn34)cc2)C1 (stereo not given in full) [SR-302]
- residual activity [1]: 100%
- inhibition [14]: 7.22%
- inhibition [15]: 3.83%
- inhibition [16]: 6.47%
- residual activity [2]: 73%
- inhibition [17]: 19.8%
- inhibition [18]: 15.8%
- residual activity [4]: 96%
- inhibition [19]: 8.18%
- inhibition [20]: 20.6%
- inhibition [21]: 20.3%
- residual activity [5]: 76%
- inhibition [22]: 8.24%
- residual activity [6]: 93%
- inhibition [23]: 45.3%
- inhibition [24]: 20.1%
- inhibition [25]: 18.5%
- inhibition [26]: 28.4%
- residual activity [7]: 100%
- inhibition [27]: -7.56%
- residual activity [8]: 84%
- inhibition [28]: 32%
- inhibition [29]: 34.9%
- inhibition [30]: 13.5%
- residual activity [9]: 100%
- inhibition [31]: 5.25%
- inhibition [32]: 10.9%
- inhibition [33]: 3.62%
- inhibition (Rattus norvegicus): 13.2%
- inhibition [34]: 18.2%
- IC50 [35]: > 25 µM
- residual activity [10]: 71%
- inhibition [36]: 31.9%
- inhibition [37]: 11.3%
- residual activity [11]: 100%
- residual activity [12]: 86%
- inhibition [38]: 16.3%
- residual activity [13]: 86%
- inhibition [39]: 11.5%
- inhibition [40]: 18.9%
- IC50 [41]: > 25 µM
- inhibition [42]: -2.24%
